Experimental data from US8349885B2, “Indole and indazole derivatives having a cell-, tissue- and organ-preserving effect” (LG Life Sciences Ltd., priority 2008, dated 2013).

Legend:
[1] = test system: human embryonic lung cell line (LB-HEL); assay: Cell-protecting effect against cold shock in LB-HEL cells (WST-1); type: cell-based; conditions: cold shock at 4° C. for 24 hours, then 37° C., cell viability by WST-1
Description: The same results as above were also obtained in other types of cells such as human embryonic lung cell line (LB-HEL) as well as hepatocytes (see FIG. 2 and Table 2). More specifically, LB-HEL cells were plated at 1.5×10^6 cells/well using DMEM medium (Gibco BRL) and treated with DMSO, nec-1, IM-54 or the compounds of Examples 126, 127, 137 and 138 at indicated concentrations. After storage at 4° C. for 24 hours, the mixture was transferred into an incubator at 37° C. and cultured therein. In order to verify recovery capacity at 37° C., cell viability after 24 hours post-transfer was measured by the optical density at 440 nm according to the WST-1 method (MK-400, Takeda) and compared with cell viability prior to cold shock (FIG. 2).

[2] = test system: primary hepatocytes isolated from rats; assay: Hepatocyte-protecting effect: viability of isolated primary hepatocytes in culture (WST-1); type: cell-based; conditions: rat primary hepatocytes; treated at 1 or 10 μM; WST-1, optical density at 440 nm
Description: If cells are isolated from in vivo environment and their culture or preservation in vitro is begun, it would act as a stress to cells, and the apoptosis mechanism would begin to work. For preservation of organs or tissues, it is necessary to protect them from such a primary stress.
In order to verify this, primary hepatocytes isolated from rats were treated with the compounds of the working examples to observe how well the compounds can protect them from a primary stress. Primary hepatocytes were isolated using the Seglen PO method (Experimental Cell Research 74 (1972) pp. 450-454). Briefly, hepatocytes were isolated according to the two-step collagenase perfusion method and then centrifuged using percoll gradient (Kreamer BL etc., In Vitro Cellular & Developmental Biology 22 (1986) pp. 201-211) at low speed (500 rpm) for 10 minutes to remove dead cells. Viability of hepatocytes was maintained at 90% or more. Cells were suspended in HepatoZYME media (Gibco BRL) and counted. 1.5×10^4 cells of 100 μl were put into a 96-well plate (BD biocoat) coated with collagen and attached to the bottom for 3-4 hours. […] After 24, 72 or 144 hours, cell viability was measured to evaluate a hepatocyte-protecting effect.
Cell viability was measured by the optical density at 440 nm according to the WST-1 method (MK-400, Takeda). […]

[3] = test system: primary cultured hepatocytes; assay: Cell-protecting effect against cold shock in primary cultured hepatocytes (WST-1); type: cell-based; conditions: Rattus norvegicus, Hepatocyte, 37° C. for 1 hour, 4° C. for 22 hours, then 37° C., cell viability by WST-1
Description: In order to reproduce a condition for preservation prior to organ transplantation, primary cultured hepatocytes were prepared according to Experimental Example 1 and treated with the compounds of the working examples at 9 different concentrations that had been prepared by 3-fold serial dilution method using a starting concentration of 25 μM. The mixture was cultured at 37° C. for 1 hour, stored at 4° C. for 22 hours, and then transferred into an incubator at 37° C. and cultured therein. Cell viability was measured by the optical density at 440 nm according to the WST-1 method (MK-400, Takeda), and IC50 (unit: μM) was obtained using prism software (see Table 1).

[4] = test system: rat-isolated perfusion liver; assay: Protecting effect against cold ischemia/warm reperfusion injury in rat-isolated perfusion liver model; conditions: 30 μM in HTK solution, 24-hour cold preservation at 4° C.
Description: In order to verify an organ preservation effect, rat-isolated perfusion liver model was used to evaluate a protecting effect of the compounds of the working examples against cold preservation injury. A white rat was anesthetized by intraperitoneal injection of sodium pentobarbital (50 mg/kg) and administered with heparin (500 U/kg) by intravenous injection to prevent blood coagulation. After incising the abdominal median line, in order to measure bile output, polyethylene tube-10 was inserted into the bile duct, and the coronary vein was tied. Polyethylene tube-190 was inserted into the hepatic portal vein, and a perfusate, Krebs-Henseleit bicarbonate buffer (KHBB) (at pH 7.4 at 37° C.) was perfused at a rate of 4 mL/min/g. […] During the perfusion, a mixed gas (O2 95% and CO2 5%) was continuously injected to KHBB to supply oxygen. […]
In order to observe a protecting effect against ischemia and reperfusion injury, bile output and perfusate's LDH activity were measured. KHBB perfusate released from liver at 5, 10, 20, 30, 40, 50, 60, 70 and 80 minutes after reperfusion was collected, and LDH activity in the perfusate was measured using a biochemical automatic analyzer, Hitachi 7150 (FIG. 4). Bile secreted through the polyethylene tube which had been inserted into the bile duct at 0˜20, 20˜40, 40˜60 and 60˜80 minutes after reperfusion was collected, and bile output was measured (FIG. 5).

SMILES	IC50 [1] [nM]	other results
Brc1c(-c2ccccc2)[nH]c2c(NC3CCOCC3)cc(CN3CCOCC3)cc12 [Example 140, [3-bromo-(5-morpholin-4-yl)methyl-2-phenyl-1H-indol-7-yl]-(tetrahydropyran-4-yl)-amine]	< 100	–
COc1ccc(-c2n[nH]c3c(NCC4CCOCC4)cccc23)cc1 [Example 152, [3-(4-methoxyphenyl)-1H-indazol-7-yl]-(tetrahydropyran-4-ylmethyl)-amine]	590	–
Clc1cc(NC2CCOCC2)c2[nH]cc(-c3ccccc3)c2c1 [Example 143, (5-chloro-3-phenyl-1H-indol-7-yl)-(tetrahydro-pyran-4-yl)-amine]	< 100	–
O=S1(=O)CCN(Cc2cc(NC3CCOCC3)c3[nH]c(-c4ccccc4)c(Br)c3c2)CC1 [Example 139]	< 100	–
O=C(O)C[C@H]1CSC(c2cc3cc(Oc4ccccc4)cc(NC4CCCC4)c3[nH]2)=N1 [Example 21, [(S)-2-(7-cyclopentylamino-5-phenoxy-1H-indol-2-yl)-4,5-dihydro-thiazole-4-yl]-acetic acid]	–	viability after 144 hours, compared with viability after 24 hours [2]: ≥ 80%; IC50 [3]: < 120 nM
O=S1(=O)CCN(Cc2cc(NCC3CCOCC3)c3[nH]c(-c4ccccc4)c(Br)c3c2)CC1 [Example 142, [3-bromo-5-(1,1-dioxo-thiomorpholin-4-ylmethyl)-2-phenyl-1H-indol-7-yl]-(tetrahydro-pyran-4-ylmethyl)-amine]	< 100	IC50 [3]: 300 nM
O=S1(=O)CCN(Cc2cc(NC3CCOCC3)c3[nH]c(-c4ccccc4)cc3c2)CC1 [Example 126, [5-(1,1-dioxo-thiomorpolin-4-ylmethyl)-2-phenyl-1H-indol-7-yl]-(tetrahydropyran-4-yl)-amine]	< 100	IC50 [3]: 248 nM; total amount of bile output ([4]; 80 minutes of reperfusion): 0.070±0.006 ml/g liver; inhibition at 30 µM ([4]; Rattus norvegicus, until 50 minutes of reperfusion, read-out: inhibition of LDH activity in the perfusate, compared with the HTK group): 50 to 70%
O=C1CN(Cc2c(-c3ccccc3)[nH]c3c(NC4CCCC4)cc(Cl)cc23)CCN1 [Example 147, 4-(5-chloro-7-cyclopentylamino-2-phenyl-1H-indol-3-ylmethyl)-piperazin-2-one]	1080	–
Cc1cc(NC2CCC(F)(F)CC2)c2[nH]c(C3=NC(CC(=O)O)CS3)cc2c1 (stereo not drawn) [Example 79]	3300	–
Clc1cc(NC2CCCC2)c2[nH]cc(-c3ccccc3)c2c1 [Example 144, (5-chloro-3-phenyl-1H-indol-7-yl)-(cyclopentyl)-amine]	< 100	–
Clc1cc(NCC2CCOCC2)c2[nH]cc(-c3ccccc3)c2c1 [Example 145, (5-chloro-3-phenyl-1H-indol-7-yl)-(tetrahydropyran-4-ylmethyl)-amine]	< 100	–
O=S1(=O)CCN(Cc2cc(NC3CCCC3)c3[nH]c(-c4ccccc4)c(Br)c3c2)CC1 [Example 141, [3-bromo-5-(1,1-dioxo-thiomorpholin-4-yl methyl)-2-phenyl-1H-indol-7-yl]-cyclopentyl-amine]	< 100	–
C[Si](C)(C)c1[nH]c2c(NC3CCOCC3)cc(CN3CCS(=O)(=O)CC3)cc2c1-c1ccccc1 [Example 146, [5-(1,1-dioxo-thiomorpholin-4-ylmethyl)-3-phenyl-2-trimethylsilanyl-1H-indol-7-yl]-(tetrahydropyran-4-yl)-amine]	823	IC50 [3]: 603 nM
COc1ccc(-c2n[nH]c3c(NC4CCOCC4)cccc23)cc1 [Example 151, [3-(4-methoxyphenyl)-1H-indazol-7-yl]-(tetrahydropyran-4-yl)-amine]	384	–
COc1ccc(-c2n[nH]c3c(NC4CCCC4)cccc23)cc1 [Example 150, cyclopentyl-[3-(4-methoxyphenyl)-1H-indazol-7-yl]-amine]	210	–
CC(=O)N1CCC(Nc2cccc3cc(C4=NC(CC(=O)O)CS4)[nH]c23)C1 (stereo not drawn) [Example 84]	7110	–
O=C1CN(Cc2c(-c3ccccc3)[nH]c3c(NCC4CCOCC4)cc(Cl)cc23)CCN1 [Example 149, 4-{5-chloro-2-phenyl-7-[(tetrahydropyran-4-ylmethyl)-amino]-1H-indol-3-ylmethyl}-piperazin-2-one]	1450	–
O=C1CN(Cc2c(-c3ccccc3)[nH]c3c(NC4CCOCC4)cc(Cl)cc23)CCN1 [Example 148, 4-[5-chloro-2-phenyl-7-(tetrahydropyran-4-ylamino)-1H-indol-3-ylmethyl]-piperazin-2-one]	2350	–
O=C(O)CC1CSC(c2cc3cccc(NC4CCCC4)c3[nH]2)=N1 (stereo not drawn) [Example 83]	3660	IC50 [3]: 729 nM
C[C@H](NC(=O)C(=O)Nc1ccccc1C(C)(C)C)C(=O)N[C@@H](CC(=O)O)C(=O)COc1c(F)c(F)cc(F)c1F [IDN6556, reference compound]	–	viability after 72 hours, compared with viability after 24 hours [2]: about 50%
